These results are taken from patent US8962674B2 (Tokyo Institute of Technology, priority 2006, dated 2015).

In turn, `COc1cc(/C=C/C(=O)CC(=O)/C=C/c2cccc3cccnc23)ccc1O` [CU453, (1E,6E)-1-(4-hydroxy-3-methoxyphenyl)-7-(quinolin-8-yl)hepta-1,6-diene-3,5-dione] came in with a melting point of 83 to 87 °C.
`O=C(/C=C/c1ccc(O)cc1)CC(=O)/C=C/c1c[nH]cn1` [CU157, (1E,6E)-1-(4-hydroxyphenyl)-7-(1H-imidazol-4-yl)hepta-1,6-diene-3,5-dione]: the melting point lay within 168 to 172 °C.
As for `COCOc1cccc(O)c1/C=C/C(=O)CC(=O)/C=C/c1ccc(OC)c(O)c1` [CU313, (1E,6E)-1-[2-hydroxy-6-(methoxymethoxy)phenyl]-7-(3-hydroxy-4-methoxyphenyl)hepta-1,6-diene-3,5-dione], the melting point was 89 to 93 °C.
The value for `O=C(/C=C/c1cn(Cc2ccccc2)c2ccccc12)CC(=O)/C=C/c1cn(Cc2ccccc2)c2ccccc12` [CU397, (1E,6E)-1,7-bis(1-benzyl-1H-indol-3-yl)hepta-1,6-diene-3,5-dione] was 206 to 213 °C; that for `O=C(/C=C/c1ccc(O)cc1)CC(=O)/C=C/c1cc(Cl)cc(Cl)c1O` [CU281, (1E,6E)-1-(3,5-dichloro-2-hydroxyphenyl)-7-(4-hydroxyphenyl)hepta-1,6-diene-3,5-dione] was 199 to 201 °C; that for `Nc1ccccc1/C=C/C(=O)CC(=O)/C=C/c1ccc(O)cc1` [CU482, (1E,6E)-1-(2-aminophenyl)-7-(4-hydroxyphenyl)hepta-1,6-diene-3,5-dione] was 186 to 193 °C.
On to `CCN(CC)c1ccc(/C=C/C(=O)CC(=O)/C=C/c2ccc(OC)c(O)c2)c(OCc2ccccc2)c1` [CU438, (1E,6E)-1-(2-benzyloxy-4-diethylaminophenyl)-7-(3-hydroxy-4-methoxyphenyl)hepta-1,6-diene-3,5-dione], for which the melting point lay within 72 to 77 °C.
The value for `O=C(/C=C/c1ccc(O)cc1Cl)CC(=O)/C=C/c1ccc(O)cc1Cl` [CU362, (1E,6E)-1,7-bis(2-chloro-4-hydroxyphenyl)hepta-1,6-diene-3,5-dione] was 248 to 254 °C.
For the compound `COc1ccc(O)c(/C=C/C(=O)CC(=O)/C=C/c2ccc(OC)c(O)c2)c1` [CU089, (1E,6E)-1-(2-hydroxy-5-methoxyphenyl)-7-(3-hydroxy-4-methoxyphenyl)hepta-1,6-diene-3,5-dione], the melting point was in the range of 80 to 86 °C.
`O=C(/C=C/c1ccc(O)cc1)CC(=O)/C=C/c1cccc(O)c1O` [CU264, (1E,6E)-1-(2,3-dihydroxyphenyl)-7-(4-hydroxyphenyl)hepta-1,6-diene-3,5-dione]: the melting point was in the range of 173 to 176 °C.
In turn, `COc1cc(O)ccc1/C=C/C(=O)CC(=O)CCc1ccc(O)cc1` [CU517, (E)-1-(4-hydroxy-2-methoxyphenyl)-7-(4-hydroxyphenyl)hept-1-ene-3,5-dione] returned a melting point of 131 to 135 °C.
`CN(C)c1cc(Br)ccc1/C=C/C(=O)CC(=O)/C=C/c1ccc(O)cc1` [CU533, (1E,6E)-1-(4-bromo-2-dimethylaminophenyl)-7-(4-hydroxyphenyl)hepta-1,6-diene-3,5-dione]: the melting point lay in the range of 74 to 81 °C.
Under `COc1ccc(/C=C/C(=O)CC(=O)/C=C/c2ccc(OC)c3ccccc23)cc1O` [CU163, (1E,6E)-1-(3-hydroxy-4-methoxyphenyl)-7-(4-methoxynaphthalen-1-yl)hepta-1,6-diene-3,5-dione] stands 170 to 175 °C; under `O=C(/C=C/c1ccc(O)cc1)CC(=O)/C=C/c1ccc(-c2ccccn2)cc1` [CU328, (1E,6E)-1-(4-hydroxyphenyl)-7-[4-(pyridin-2-yl)phenyl]hepta-1,6-diene-3,5-dione], 229 to 232 °C; under `COc1cc(/C=C/C(=O)CC(=O)/C=C/c2ccc(SC)cc2)ccc1O` [CU012, (1E,6E)-1-(4-hydroxy-3-methoxyphenyl)-7-(4-methylthiophenyl)hepta-1,6-diene-3,5-dione], 147 to 149 °C.
